Assay: solvent given as SMILES

`COC(=O)c1cc(=O)n(C)c2cc(-c3ccc4c(c3)OCCO4)sc12` gave an emission maximum (in CC#N) of 478 nm and an emission maximum (in ClCCl) of 473 nm.

Compound `N#Cc1c(-n2c3ccc(-c4ccccc4)cc3c3cc(-c4ccccc4)ccc32)c(-n2c3ccc(-c4ccccc4)cc3c3cc(-c4ccccc4)ccc32)c(C#N)c(-n2c3ccc(-c4ccccc4)cc3c3cc(-c4ccccc4)ccc32)c1-n1c2ccc(-c3ccccc3)cc2c2cc(-c3ccccc3)ccc21` has an emission maximum (in Cc1ccccc1) of 577 nm.

Compound `CCCCCCN(CCCCCC)c1ccc(C#Cc2ccc([N+](=O)[O-])cc2)cc1` has an emission maximum (in CO) of 630 nm and an emission maximum (in ClCCl) of 618 nm.

In the case of `COc1c(C(C)=O)c(=O)oc2cc(N(C)C)ccc12`, the emission maximum (in ClCCl) is reported as 419 nm.

`CSc1nc(-c2ccc(-n3c4ccccc4c4ccccc43)cc2)cc(-c2ccc(-n3c4ccccc4c4ccccc43)cc2)n1` gave an emission maximum (in C1CCOC1) of 447 nm, an emission maximum (in CN(C)C=O) of 497 nm and an emission maximum (in Cc1ccccc1) of 410 nm. For the same compound, the emission maximum (in ClC(Cl)Cl) was 446 nm.

In the case of `O=C1CC(c2ccc(C(F)(F)F)cc2)c2c(c3ccccc3c3nc4ccccc4nc23)O1` (configuration not stated), the emission maximum (in ClC(Cl)Cl) is reported as 433 nm.

For `N#Cc1ccc(-c2cn3cc(-c4ccccc4)c[n+]3[n-]2)cc1`, the emission maximum (in ClCCl) was 506 nm.

For `c1ccc(-c2nc(-c3ccc(N4c5ccccc5Oc5ccccc54)cc3)nn2-c2ccc(N3c4ccccc4Oc4ccccc43)cc2)nc1`, the emission maximum (in ClCCl) was 490 nm.

In the case of `F[B-]1(F)n2c(Oc3ccccc3)c(Cl)c3c2C(=C2C(Br)=C(Cl)C(Oc4ccccc4)=[N+]21)Oc1ccccc1-3`, the emission maximum (in ClCCl) is reported as 492 nm.

For `CCN(CC)c1ccc2c(-c3ccc(S(=O)(=O)O)cc3S(=O)(=O)[O-])c3ccc(=[N+](CC)CC)cc-3oc2c1`, the emission maximum (in CC#N) was 575 nm, the emission maximum (in CCO) was 581 nm and the emission maximum (in CN(C)C=O) was 576 nm. The emission maximum (in O) was 591 nm.

For `CC(C)[Si](C#Cc1c2cc3ccccc3cc2c(C#C[Si](C)(C)C)c2cc3ccccc3cc12)(C(C)C)C(C)C`, the emission maximum (in ClCCl) was 649 nm.

Compound `CC(C)(C)c1ccc2c(c1)c1cc(C(C)(C)C)ccc1n2-c1ccc(N(c2ccc(-c3ccc(-c4ccc(-c5ccc(N(c6ccc(-n7c8ccc(C(C)(C)C)cc8c8cc(C(C)(C)C)ccc87)cc6)c6ccc(-n7c8ccc(C(C)(C)C)cc8c8cc(C(C)(C)C)ccc87)cc6)cc5)s4)s3)cc2)c2ccc(-n3c4ccc(C(C)(C)C)cc4c4cc(C(C)(C)C)ccc43)cc2)cc1` has an emission maximum (in ClCCl) of 494 nm.

`O=S1(=O)c2ccccc2-c2c1c1ccccc1p2-c1ccccc1` (configuration not stated) gave an emission maximum (in C1CCCCC1) of 436 nm, an emission maximum (in CC#N) of 453 nm and an emission maximum (in CCO) of 464 nm. For the same compound, the emission maximum (in ClCCl) was 453 nm.

`O=C(O)c1ccc(-c2nc(-c3ccccc3)c3c4ccccc4ccn23)cc1` gave an emission maximum (in CC#N) of 473 nm.

Work on `COc1ccc2cc([C@H](C)C(=O)O)ccc2c1` yielded an emission maximum (in C1CCOC1) of 351.7 nm, an emission maximum (in CC#N) of 352.7 nm and an emission maximum (in CC(C)O) of 351.3 nm. For the same compound, the emission maximum (in CCCCO) was 351.4 nm, the emission maximum (in CCO) was 352.3 nm and the emission maximum (in CO) was 352.2 nm. It also gave an emission maximum (in ClCCl) of 353.1 nm and an emission maximum (in O) of 355.5 nm.

`C(=C\c1nc2ccccc2o1)/c1ccccc1` showed an emission maximum (in C1CCCCC1) of 380 nm and an emission maximum (in CO) of 380 nm.

With `CC1=[N+]2C(=C(c3c4ccccc4cc4ccccc34)c3ccc(/C=C/C(C)(C)C)n3[B-]2(F)F)C=C1` the emission maximum (in ClC(Cl)Cl) was 556 nm.

`COC(=O)c1c(-c2cc3ccccc3oc2=O)nn(-c2cccc(F)c2)c1C(=O)OC` gave an emission maximum (in ClCCl) of 402 nm.

Work on `Cc1nc2cccc(-c3nc4ccccc4o3)c2c(=O)[nH]1` yielded an emission maximum (in CN(C)C=O) of 398 nm.

Work on `CCCCCCCCCCCCN1C(=O)c2c(c3ccc4cc(-c5ccc(-c6ccccc6)cc5)c(OC)cc4c3c3c2ccc2cc(-c4ccc(-c5ccccc5)cc4)c(OC)cc23)C1=O` yielded an emission maximum (in ClCCl) of 527 nm.

`c1ccc(-c2nc(-c3ccccc3)nc(-c3cc(-n4c5ccccc5c5ncccc54)c(-n4c5ccccc5c5ncccc54)c(-n4c5ccccc5c5ncccc54)c3)n2)cc1` gave an emission maximum (in Cc1ccccc1) of 435.76 nm.

Compound `COc1ccc(N2c3sc4ccccc4c3Sc3c2sc2ccccc32)cc1` has an emission maximum (in ClCCl) of 549 nm.

Compound `Cc1ccc(C2=C(c3ccc(C)cc3)c3cccc4c3c(cc3nc5ccccc5nc34)O2)cc1` has an emission maximum (in ClCCl) of 559 nm.

With `CCCN1/C(=C/C=C(/C=C/C2=[N+](CCC)c3ccccc3C2(C)C)c2cc[n+](C)cc2)C(C)(C)c2ccccc21` the emission maximum (in CO) was 658 nm, the emission maximum (in CS(C)=O) was 657 nm and the emission maximum (in O) was 658 nm.

For `COc1ccc(-c2cc(/C=C/c3ccc(N(c4ccccc4)c4ccccc4)cc3)c(C#N)c(N3CCCCC3)c2)cc1`, the emission maximum (in CS(C)=O) was 520 nm.

`COC(=O)C(Cc1ccc2oc(-c3ccncc3)nc2c1)NC(=O)OC(C)(C)C` (configuration not stated) gave an emission maximum (in CC1CCCCC1) of 356.74 nm, an emission maximum (in CC#N) of 374.95 nm and an emission maximum (in CO) of 384.74 nm.

Compound `CC(C)(C)c1ccc2c3ccccc3c3cncnc3c2c1` has an emission maximum (in ClCCl) of 376 nm.

With `Cc1cc(-c2nc(-c3ccccc3)nc(-c3ccccc3)n2)ccc1-c1ccc2c(c1)C1(c3ccccc3-c3ccccc31)c1ccccc1N2c1ccccc1` the emission maximum (in c1cc(-c2cccc(-n3c4ccccc4c4ccccc43)c2)cc(-n2c3ccccc3c3ccccc32)c1) was 450 nm.

Work on `F[Si](c1ccccc1)(c1ccccc1)c1cccc2ccccc12` yielded an emission maximum (in C1CCOC1) of 332 nm.

Compound `CCCCn1c2ccccc2c2ccc3c4cc(-c5ccc(OC)cc5)ccc4n(CCCC)c3c21` has an emission maximum (in ClC(Cl)Cl) of 409 nm.

`CCCCCCCCCCCCCCCCn1c(-c2cc(-c3nc4ccc(C)cc4n3CCCCCCCCCCCCCCCC)cc(-c3nc4ccc(C)cc4n3CCCCCCCCCCCCCCCC)c2)nc2ccc(C)cc21` gave an emission maximum (in C1CCOC1) of 366.9 nm.

In the case of `CCOC(=O)c1cc(C(=O)NCc2ccccc2)c2ccc(N(C)C)cc2n1`, the emission maximum (in CCO) is reported as 586 nm.

Compound `COC(=O)C(NC(=O)OC(C)(C)C)c1ccc2oc(-c3ccc(F)cc3)nc2c1` (configuration not stated) has an emission maximum (in CC1CCCCC1) of 320 nm, an emission maximum (in CC#N) of 341 nm and an emission maximum (in CO) of 342 nm.

For `CCCCC1(CCCC)c2cc(C#Cc3ccc(C=C4c5ccccc5C=Cc5ccccc54)cc3)ccc2-c2ccc(C#Cc3ccc(C=C4c5ccccc5C=Cc5ccccc54)cc3)cc21`, the emission maximum (in C1CCOC1) was 405 nm.

`Oc1ccccc1-c1nc2c3ccccc3c3ccccc3c2n1-c1ccccc1` showed an emission maximum (in Cc1ccccc1) of 369 nm.

`Cc1cn2cc(-c3ccccc3)[n-][n+]2c1` showed an emission maximum (in ClCCl) of 422 nm.

With `CC1(C)C(/C=C/c2cc3ccc(O)cc3oc2=O)=[N+](CCCS(=O)(=O)[O-])c2ccccc21` the emission maximum (in CCO) was 642 nm, the emission maximum (in CS(C)=O) was 649 nm and the emission maximum (in O) was 620 nm.

Work on `COc1ccc(-c2ccc3c(c2)c2cc(-c4ccc(OC)cc4)ccc2n3-c2ccc(C(=O)c3ccc4sc5ccccc5c4c3)cn2)cc1` yielded an emission maximum (in Cc1ccccc1) of 479.23 nm and an emission maximum (in c1cc(-n2c3ccccc3c3ccccc32)cc(-n2c3ccccc3c3ccccc32)c1) of 484 nm.

Work on `Cc1ccc(-c2ccc(/C=C/c3cccs3)cn2)nc1` yielded an emission maximum (in CC#N) of 422 nm.

In the case of `c1ccc(C2c3ccccc3-c3cc4c(cc32)-c2ccccc2C4c2ccccc2)cc1` (configuration not stated), the emission maximum (in ClCCl) is reported as 360 nm.

For `CN(C)c1ccc2[c](c1)[Sn]([CH3])([CH3])[C]1=CC(=[N+](C)C)C=CC1=C2`, the emission maximum (in O) was 628 nm.

`Cc1cc(C)c2nc3c(=O)[nH]c(=O)[nH]c3nc2c1` showed an emission maximum (in CC#N) of 461 nm.

Compound `CCC1(CC)c2ccccc2-c2c1c1c(c3c2C(CC)(CC)c2cc(/C=C/c4cccs4)ccc2-3)C(CC)(CC)c2ccccc2-1` has an emission maximum (in C1CCOC1) of 395 nm.

`Brc1cnc(-c2ccc(N(c3ccccc3)c3ccccc3)cc2)s1` showed an emission maximum (in CO) of 493 nm.

Work on `CC(C)(C)[Si](C)(C)c1ccc([Si](C)(C)C(C)(C)C)c2ccccc12` yielded an emission maximum (in C1CCCCC1) of 335 nm.

With `COc1ccc(C2=N/C(=C\c3ccccc3)C(=O)N2)cc1OC` the emission maximum (in C1COCCO1) was 455 nm.

With `CCCCCCc1sc(CCCCCC)c2c3ccsc3c3sccc3c12` the emission maximum (in ClC(Cl)Cl) was 425 nm.

Compound `O=S1(=O)C(c2cccs2)=C(c2cccs2)c2ccccc21` has an emission maximum (in C1CCOC1) of 432 nm.

Compound `CN(C)c1ccc(-c2nc3c(c4c2-c2ccc(C#N)cc2CC4)-c2ccc(C#N)cc2CC3)cc1` has an emission maximum (in C1CCOC1) of 500 nm, an emission maximum (in CC#N) of 505 nm and an emission maximum (in CCCCCC) of 444 nm. It also gave an emission maximum (in CCOC(C)=O) of 489 nm, an emission maximum (in CO) of 489 nm and an emission maximum (in CS(C)=O) of 516 nm. The emission maximum (in Cc1ccccc1) was 469 nm and the emission maximum (in ClCCl) was 482 nm.

`c1ccc(N(c2ccccc2)c2ccc(-n3ccc4cc(-c5ccc6c(c5)C(c5ccccc5)(c5ccccc5)c5ccccc5-6)ccc43)cc2)cc1` gave an emission maximum (in ClCCl) of 380 nm.

`COc1cc(C(=O)O)cc(OC)c1O` showed an emission maximum (in O) of 333 nm.

Work on `COc1ccc2c(c1)N(c1ccc(C)cc1)c1cc3c(cc1=N2)Oc1c(cc(C(C)(C)C)cc1C(C)(C)C)N=3` yielded an emission maximum (in CC#N) of 625 nm, an emission maximum (in CCCCCC) of 586 nm and an emission maximum (in CO) of 635 nm.

`CC(C)(C)c1ccc2c(c1)c1cc(C(C)(C)C)ccc1n2-c1ccc(C#Cc2ccc(C#Cc3ccc(C=C(C#N)C#N)cc3)cc2)cc1` showed an emission maximum (in ClCCl) of 474 nm.

With `F[B-]1(F)OC(/C=C/c2ccccc2)=CC(c2ccccc2)=[O+]1` the emission maximum (in ClCCl) was 443 nm.

With `CC[N+](CC)=c1ccc2c(-c3ccccc3C(=O)O)c3c(=O)oc4cc5c(cc4c3oc-2c1)CCCN5C` the emission maximum (in CCO) was 651 nm, the emission maximum (in ClC(Cl)Cl) was 647 nm and the emission maximum (in O) was 658 nm.

Compound `CC(C)(C)c1ccc(C2=C(c3ccc(C(C)(C)C)cc3)C(c3ccc(C(C)(C)C)cc3)=[N+]3C2=C(c2ccccc2)c2c(-c4ccc(C(C)(C)C)cc4)c(-c4ccc(C(C)(C)C)cc4)c(-c4ccc(C(C)(C)C)cc4)n2[B-]3(F)F)cc1` has an emission maximum (in C1CCCCC1) of 634 nm, an emission maximum (in C1CCOC1) of 637 nm and an emission maximum (in CC#N) of 629 nm. The emission maximum (in Cc1ccccc1) was 639 nm and the emission maximum (in ClCCl) was 636 nm.

Compound `O=Cc1cc(N2CCCCC2)c2ccc3c(N4CCCCC4)cc(N4CCCCC4)c4ccc1c2c43` has an emission maximum (in C1COCCO1) of 557 nm, an emission maximum (in CC#N) of 596 nm and an emission maximum (in CC(C)=O) of 581 nm. For the same compound, the emission maximum (in CCCCCC) was 520 nm, the emission maximum (in CCO) was 635 nm and the emission maximum (in CCOC(C)=O) was 562 nm. The emission maximum (in CO) was 643 nm, the emission maximum (in CS(C)=O) was 601 nm and the emission maximum (in Cc1ccccc1) was 554 nm. It also gave an emission maximum (in ClCCl) of 597 nm.

Compound `CC(=O)O[B-]1(OC(C)=O)OC(/C=C/c2cccc3ccccc23)=CC(/C=C/c2cccc3ccccc23)=[O+]1` has an emission maximum (in C1CCOC1) of 539 nm, an emission maximum (in CC#N) of 569 nm and an emission maximum (in CC(C)=O) of 553 nm. The emission maximum (in CS(C)=O) was 574 nm, the emission maximum (in Cc1ccccc1) was 529 nm and the emission maximum (in ClC(Cl)Cl) was 551 nm. For the same compound, the emission maximum (in ClCCl) was 554 nm.

For `c1ccc(-c2cn3ccc[n+]3[n-]2)cc1`, the emission maximum (in ClCCl) was 419 nm.

Source: the Deep4Chem optical property database
